# ChEMBL document CHEMBL4270553, “Synthesis and anticancer activity of new dihydropyrimidinone derivatives” (Eur J Med Chem, 2018)
# Tested on: UACC-62
# Test: Antiproliferative activity against human UACC62 cells assessed as growth inhibition at 10 uM after 48 hrs by sulforhodamine B assay relative to control
# Type: functional
# Conditions: UACC-62, 48 h, read-out: GI
row,Compound,inhibition of growth at 10 µM [%]
1,CCOC(=O)C1=C(CSc2nnnn2-c2ccccc2)N(C)C(=O)NC1c1ccccc1 (configuration not stated),17
2,CCOC(=O)C1=C(CSc2nc3ccccc3[nH]2)N(C)C(=O)NC1c1ccccc1 (configuration not stated),11
3,CCOC(=O)C1=C(CSC(=S)N2CCOCC2)N(C)C(=O)NC1c1ccccc1 (configuration not stated),16

# Tested on: LOX IMVI
# Test: Antiproliferative activity against human LOXIMVI cells assessed as growth inhibition at 10 uM after 48 hrs by sulforhodamine B assay relative to control
# Type: functional
# Conditions: read-out: GI
row,Compound,inhibition of growth at 10 µM [%]
1,CCOC(=O)C1=C(CSc2nnnn2-c2ccccc2)N(C)C(=O)NC1c1ccccc1 (configuration not stated),14
2,CCOC(=O)C1=C(CSc2nc3ccccc3[nH]2)N(C)C(=O)NC1c1ccccc1 (configuration not stated),11
3,CCOC(=O)C1=C(CSC(=S)N2CCOCC2)N(C)C(=O)NC1c1ccccc1 (configuration not stated),12

# Tested on: SK-MEL-5
# Test: Antiproliferative activity against human SK-MEL-5 cells assessed as growth inhibition at 10 uM after 48 hrs by sulforhodamine B assay relative to control
# Type: functional
# Conditions: SK-MEL-5, 48 h, read-out: GI
row,Compound,inhibition of growth at 10 µM [%]
1,CCOC(=O)C1=C(CSc2nnnn2-c2ccccc2)N(C)C(=O)NC1c1ccccc1 (configuration not stated),2
2,CCOC(=O)C1=C(CSC(=S)N2CCOCC2)N(C)C(=O)NC1c1ccccc1 (configuration not stated),1

# Tested on: A549
# Test: Antiproliferative activity against human A549/ATCC cells assessed as growth inhibition at 10 uM after 48 hrs by sulforhodamine B assay relative to control
# Type: functional
# Conditions: A549, 48 h, read-out: GI
row,Compound,inhibition of growth at 10 µM [%]
1,CCOC(=O)C1=C(CSC(=S)N2CCOCC2)N(C)C(=O)NC1c1ccccc1 (configuration not stated),4

# Tested on: MOLT-4
# Test: Antiproliferative activity against human MOLT4 cells assessed as growth inhibition at 10 uM after 48 hrs by sulforhodamine B assay relative to control
# Type: functional
# Conditions: MOLT-4, 48 h, read-out: GI
row,Compound,inhibition of growth at 10 µM [%]
1,CCOC(=O)C1=C(CSc2nnnn2-c2ccccc2)N(C)C(=O)NC1c1ccccc1 (configuration not stated),26
2,CCOC(=O)C1=C(CSc2nc3ccccc3[nH]2)N(C)C(=O)NC1c1ccccc1 (configuration not stated),14
3,CCOC(=O)C1=C(CSC(=S)N2CCOCC2)N(C)C(=O)NC1c1ccccc1 (configuration not stated),5

# Tested on: HCT-15
# Test: Antiproliferative activity against human HCT15 cells assessed as growth inhibition at 10 uM after 48 hrs by sulforhodamine B assay relative to control
# Type: functional
# Conditions: HCT-15, 48 h, read-out: GI
row,Compound,inhibition of growth at 10 µM [%]
1,CCOC(=O)C1=C(CSc2nnnn2-c2ccccc2)N(C)C(=O)NC1c1ccccc1 (configuration not stated),8
2,CCOC(=O)C1=C(CSc2nc3ccccc3[nH]2)N(C)C(=O)NC1c1ccccc1 (configuration not stated),7
3,CCOC(=O)C1=C(CSC(=S)N2CCOCC2)N(C)C(=O)NC1c1ccccc1 (configuration not stated),7

# Tested on: MDA-MB-468
# Test: Antiproliferative activity against human MDA-MB-468 cells assessed as growth inhibition at 10 uM after 48 hrs by sulforhodamine B assay relative to control
# Type: functional
# Conditions: MDA-MB-468, 48 h, read-out: GI
row,Compound,inhibition of growth at 10 µM [%]
1,CCOC(=O)C1=C(CSc2nnnn2-c2ccccc2)N(C)C(=O)NC1c1ccccc1 (configuration not stated),3
2,CCOC(=O)C1=C(CSc2nc3ccccc3[nH]2)N(C)C(=O)NC1c1ccccc1 (configuration not stated),1
3,CCOC(=O)C1=C(CSC(=S)N2CCOCC2)N(C)C(=O)NC1c1ccccc1 (configuration not stated),6

# Tested on: T47D
# Test: Antiproliferative activity against human T47D cells assessed as growth inhibition at 10 uM after 48 hrs by sulforhodamine B assay relative to control
# Type: functional
# Conditions: read-out: GI
row,Compound,inhibition of growth at 10 µM [%]
1,CCOC(=O)C1=C(CSc2nnnn2-c2ccccc2)N(C)C(=O)NC1c1ccccc1 (configuration not stated),17
2,CCOC(=O)C1=C(CSC(=S)N2CCOCC2)N(C)C(=O)NC1c1ccccc1 (configuration not stated),18

# Tested on: HL-60(TB)
# Test: Antiproliferative activity against human HL-60(TB) cells assessed as growth inhibition at 10 uM after 48 hrs by sulforhodamine B assay relative to control
# Type: functional
# Conditions: HL-60, 48 h, read-out: GI
row,Compound,inhibition of growth at 10 µM [%]
1,CCOC(=O)C1=C(CSc2nnnn2-c2ccccc2)N(C)C(=O)NC1c1ccccc1 (configuration not stated),7
2,CCOC(=O)C1=C(CSc2nc3ccccc3[nH]2)N(C)C(=O)NC1c1ccccc1 (configuration not stated),6
3,CCOC(=O)C1=C(CSC(=S)N2CCOCC2)N(C)C(=O)NC1c1ccccc1 (configuration not stated),4

# Tested on: NCI-H322M
# Test: Antiproliferative activity against human NCI-H322M cells assessed as growth inhibition at 10 uM after 48 hrs by sulforhodamine B assay relative to control
# Type: functional
# Conditions: read-out: GI
row,Compound,inhibition of growth at 10 µM [%]
1,CCOC(=O)C1=C(CSc2nnnn2-c2ccccc2)N(C)C(=O)NC1c1ccccc1 (configuration not stated),18
2,CCOC(=O)C1=C(CSc2nc3ccccc3[nH]2)N(C)C(=O)NC1c1ccccc1 (configuration not stated),12
3,CCOC(=O)C1=C(CSC(=S)N2CCOCC2)N(C)C(=O)NC1c1ccccc1 (configuration not stated),18

# Tested on: UO-31
# Test: Antiproliferative activity against human UO31 cells assessed as growth inhibition at 10 uM after 48 hrs by sulforhodamine B assay relative to control
# Type: functional
# Conditions: UO-31, 48 h, read-out: GI
row,Compound,inhibition of growth at 10 µM [%]
1,CCOC(=O)C1=C(CSc2nnnn2-c2ccccc2)N(C)C(=O)NC1c1ccccc1 (configuration not stated),21
2,CCOC(=O)C1=C(CSc2nc3ccccc3[nH]2)N(C)C(=O)NC1c1ccccc1 (configuration not stated),4
3,CCOC(=O)C1=C(CSC(=S)N2CCOCC2)N(C)C(=O)NC1c1ccccc1 (configuration not stated),9

# Tested on: NCI-H522
# Test: Antiproliferative activity against human NCI-H522 cells assessed as growth inhibition at 10 uM after 48 hrs by sulforhodamine B assay relative to control
# Type: functional
# Conditions: NCI-H522, 48 h, read-out: GI
row,Compound,inhibition of growth at 10 µM [%]
1,CCOC(=O)C1=C(CSc2nnnn2-c2ccccc2)N(C)C(=O)NC1c1ccccc1 (configuration not stated),14
2,CCOC(=O)C1=C(CSc2nc3ccccc3[nH]2)N(C)C(=O)NC1c1ccccc1 (configuration not stated),3
3,CCOC(=O)C1=C(CSC(=S)N2CCOCC2)N(C)C(=O)NC1c1ccccc1 (configuration not stated),7

# Tested on: SF-295
# Test: Antiproliferative activity against human SF295 cells assessed as growth inhibition at 10 uM after 48 hrs by sulforhodamine B assay relative to control
# Type: functional
# Conditions: SF-295, 48 h, read-out: GI
row,Compound,inhibition of growth at 10 µM [%]
1,CCOC(=O)C1=C(CSc2nnnn2-c2ccccc2)N(C)C(=O)NC1c1ccccc1 (configuration not stated),11
2,CCOC(=O)C1=C(CSc2nc3ccccc3[nH]2)N(C)C(=O)NC1c1ccccc1 (configuration not stated),7
3,CCOC(=O)C1=C(CSC(=S)N2CCOCC2)N(C)C(=O)NC1c1ccccc1 (configuration not stated),9

# Tested on: NCI/ADR-RES
# Test: Antiproliferative activity against human NCI/ADR-RES cells assessed as growth inhibition at 10 uM after 48 hrs by sulforhodamine B assay relative to control
# Type: functional
# Conditions: read-out: GI
row,Compound,inhibition of growth at 10 µM [%]
1,CCOC(=O)C1=C(CSc2nnnn2-c2ccccc2)N(C)C(=O)NC1c1ccccc1 (configuration not stated),14
2,CCOC(=O)C1=C(CSc2nc3ccccc3[nH]2)N(C)C(=O)NC1c1ccccc1 (configuration not stated),6
3,CCOC(=O)C1=C(CSC(=S)N2CCOCC2)N(C)C(=O)NC1c1ccccc1 (configuration not stated),6

# Tested on: K562
# Test: Antiproliferative activity against human K562 cells assessed as growth inhibition at 10 uM after 48 hrs by sulforhodamine B assay relative to control
# Type: functional
# Conditions: K562, 48 h, read-out: GI
row,Compound,inhibition of growth at 10 µM [%]
1,CCOC(=O)C1=C(CSc2nnnn2-c2ccccc2)N(C)C(=O)NC1c1ccccc1 (configuration not stated),17
2,CCOC(=O)C1=C(CSc2nc3ccccc3[nH]2)N(C)C(=O)NC1c1ccccc1 (configuration not stated),10
3,CCOC(=O)C1=C(CSC(=S)N2CCOCC2)N(C)C(=O)NC1c1ccccc1 (configuration not stated),83

# Tested on: HCT-116
# Test: Antiproliferative activity against human HCT116 cells assessed as growth inhibition at 10 uM after 48 hrs by sulforhodamine B assay relative to control
# Type: functional
# Conditions: HCT-116, 48 h, read-out: GI
row,Compound,inhibition of growth at 10 µM [%]
1,CCOC(=O)C1=C(CSc2nnnn2-c2ccccc2)N(C)C(=O)NC1c1ccccc1 (configuration not stated),12
2,CCOC(=O)C1=C(CSc2nc3ccccc3[nH]2)N(C)C(=O)NC1c1ccccc1 (configuration not stated),6
3,CCOC(=O)C1=C(CSC(=S)N2CCOCC2)N(C)C(=O)NC1c1ccccc1 (configuration not stated),6

# Tested on: PC-3
# Test: Antiproliferative activity against human PC3 cells assessed as growth inhibition at 10 uM after 48 hrs by sulforhodamine B assay relative to control
# Type: functional
# Conditions: PC-3, 48 h, read-out: GI
row,Compound,inhibition of growth at 10 µM [%]
1,CCOC(=O)C1=C(CSc2nc3ccccc3[nH]2)N(C)C(=O)NC1c1ccccc1 (configuration not stated),8

# Tested on: ACHN
# Test: Antiproliferative activity against human ACHN cells assessed as growth inhibition at 10 uM after 48 hrs by sulforhodamine B assay relative to control
# Type: functional
# Conditions: read-out: GI
row,Compound,inhibition of growth at 10 µM [%]
1,CCOC(=O)C1=C(CSc2nnnn2-c2ccccc2)N(C)C(=O)NC1c1ccccc1 (configuration not stated),3
2,CCOC(=O)C1=C(CSc2nc3ccccc3[nH]2)N(C)C(=O)NC1c1ccccc1 (configuration not stated),2
3,CCOC(=O)C1=C(CSC(=S)N2CCOCC2)N(C)C(=O)NC1c1ccccc1 (configuration not stated),7

# Tested on: SR
# Test: Antiproliferative activity against human SR cells assessed as growth inhibition at 10 uM after 48 hrs by sulforhodamine B assay relative to control
# Type: functional
# Conditions: read-out: GI
row,Compound,inhibition of growth at 10 µM [%]
1,CCOC(=O)C1=C(CSc2nnnn2-c2ccccc2)N(C)C(=O)NC1c1ccccc1 (configuration not stated),13
2,CCOC(=O)C1=C(CSc2nc3ccccc3[nH]2)N(C)C(=O)NC1c1ccccc1 (configuration not stated),1
3,CCOC(=O)C1=C(CSC(=S)N2CCOCC2)N(C)C(=O)NC1c1ccccc1 (configuration not stated),12

# Tested on: CAKI-1
# Test: Antiproliferative activity against human Caki1 cells assessed as growth inhibition at 10 uM after 48 hrs by sulforhodamine B assay relative to control
# Type: functional
# Conditions: CAKI-1, 48 h, read-out: GI
row,Compound,inhibition of growth at 10 µM [%]
1,CCOC(=O)C1=C(CSc2nnnn2-c2ccccc2)N(C)C(=O)NC1c1ccccc1 (configuration not stated),14
2,CCOC(=O)C1=C(CSc2nc3ccccc3[nH]2)N(C)C(=O)NC1c1ccccc1 (configuration not stated),2

# Tested on: OVCAR-4
# Test: Antiproliferative activity against human OVCAR4 cells assessed as growth inhibition at 10 uM after 48 hrs by sulforhodamine B assay relative to control
# Type: functional
# Conditions: OVCAR-4, 48 h, read-out: GI
row,Compound,inhibition of growth at 10 µM [%]
1,CCOC(=O)C1=C(CSc2nnnn2-c2ccccc2)N(C)C(=O)NC1c1ccccc1 (configuration not stated),4

# Tested on: MCF7
# Test: Antiproliferative activity against human MCF7 cells assessed as growth inhibition at 10 uM after 48 hrs by sulforhodamine B assay relative to control
# Type: functional
# Conditions: MCF7, 48 h, read-out: GI
row,Compound,inhibition of growth at 10 µM [%]
1,CCOC(=O)C1=C(CSc2nnnn2-c2ccccc2)N(C)C(=O)NC1c1ccccc1 (configuration not stated),15
2,CCOC(=O)C1=C(CSc2nc3ccccc3[nH]2)N(C)C(=O)NC1c1ccccc1 (configuration not stated),14
3,CCOC(=O)C1=C(CSC(=S)N2CCOCC2)N(C)C(=O)NC1c1ccccc1 (configuration not stated),14
